Test results: patent publication US20130156869A1, “PHARMACEUTICAL COMPOSITION FOR THE TREATMENT OF ALZHEIMER'S DISEASE, METHOD FOR PRODUCING SAME AND USE THEREOF” (Funddacao Arnaldo Vieira de Carvalho, priority 2010, published 2013)

Test system: patients diagnosed with Alzheimer's disease
Test: Mini Mental State Examination (MMSE) performed quarterly in a blinded, placebo-controlled study of lithium microdoses
Type: in vivo, human
Excerpt: Patients clinically diagnosed with Alzheimer's disease by the DSM-IV and NINCDS-ADRDA criteria, and under treatment. The patients were selected by the Mini Mental State Examination (MMSE), which is a questionnaire asked to the patient at each visit, which has a maximum score of 30 points. The Mini-Mental State Examination (MMSE) was designed to be a clinical practice assessment of change in the cognitive status in geriatric patients (Folstein et al, 1975). It examines temporal and spatial orientation, short-term memory (or immediate attention) and recall, calculation, apraxia, and language and visual-spatial skills. It can be used as a screening test for cognitive impairment or as a cognitive assessment of bedside. The Portuguese version of the MMSE (Bertolucci et al, 1994) was considered reliable and adequate for screening and monitoring of ambulatory elderly (Lawrence et al, 2008).
The MMSE includes 11 items, divided into 2 sections. The first requires verbal answers to questions of orientation, memory and attention, the second to questions of reading and writing skills, and it evaluates the skills of appointment, follow verbal and written commands, writing a sentence and copying a drawing (polygons) (Folstein et al, 1975). The cutoff point most often used to indicate a cognitive impairment that deserves further investigation is 24. […] The cutoff point is often adjusted for the education level because a single cut can lose cases among persons with more education, and generate false positives among those with less education. […] Some Brazilian authors studied the measuring characteristics of the scale. Thus, to evaluate the cognitive performance of a population seeking medical screening service of a hospital, Bertolucci applied the MMSE in 530 individuals. We found distinct cutoff points for the diagnosis of cognitive decline, according to the level of education: 13 for illiterates, 18 for low and middle levels of education and 26 for high level of education, with a sensitivity of 82.4%, 75.6% and 80%, and specificity of 97.5%, 96.6% and 95.6%, respectively (Bertolucci et al, 1994). The MMSE was the parameter chosen for inclusion and monitoring of patients of the search for being a test performed on all patients in this clinic and for being a cognitive assessment scale that is practical and useful in the investigation of patients with dementia risk, as in the case of elderly (Almeida, 1998), and it is prescriptive by use and the criteria for dispensing medications adopted by the Ministry of Health. The fact that all medical professionals involved in the evaluation of patients are fully trained and qualified in applying the MMSE was also relevant for this choice. The inclusion of a second test could generate a methodological error that is not measurable. The patients were diagnosed by a neurologist, psychiatrist or geriatrician as suffering from dementia due to Alzheimer's disease, according to the criteria previously mentioned. Patients must present MMSE score equal to or greater than 12 for patients over 4 years of education and greater than or equal to 9 for patients with up to 4 years of education. (Almeida, 1998).
In this preferred embodiment of the invention, the drug tested was the lithium gluconate in a dose of 8.140 mg in 2 mL of solution, which corresponds to 0.28 mg or 0.04 mMol of the metal administered sublingually. Two presentations were used: one containing the lithium gluconate and other containing placebo (anhydrous glucose and purified water). Both presentations were differentiated by a label existing in a group, placebo or lithium, unknown by researchers and by the executors of the MMSE. The patients were selected in a blinded fashion in both groups, with and without stamp by attendance order, being the first with the seal, alternating until the last patient. Formulations were also evaluated with lithium carbonate, respecting the dose of 0.28 mg of metal per dose. […]

O=C([O-])[C@H](O)[C@@H](O)[C@H](O)[C@H](O)CO.[Li+] [Lithium, lithium gluconate]
MMSE scores vs control by age group (61-70 years, F1,62=8.487, p=0.0053, Bonferroni test not significant): significant differences in the treatment factor
MMSE scores vs control by age group (71-80 years, treatment factor F1,302=29.6, p<0.0001): stable maintenance of these values
MMSE scores vs control by age group (>80 years, treatment factor F1,225=19.53, p<0.0001): better scores on the MMSE compared to control subjects
Evolution of MMSE scores in quarterly reviews (all participants, six quarters, treatment factor F1,614=65.81, p<0.0001 vs control): maintenance of these scores
MMSE score (first quarter of treatment, 0.28 mg lithium metal per dose, sublingual, P<0.01 vs control): 20.57±0.66
MMSE score (quarter 0, immediately before inclusion in the protocol (baseline), n=56, P=0.17 vs control): 19±0.63
MMSE score (quarter 5 (end of study), 0.28 mg lithium metal per dose, sublingual, P<0.001 vs control): 20±0.9
Influence of gender on MMSE scores in the treated group (treated men vs treated women, p=0.4448 and p=0.9786): no significant differences in treatment and time factors
